Like-named read-outs stand apart in the source and are kept apart here.
Columns and labels:
human ADAMTS-5 [1] = target: T1, human ADAMTS-5 (Homo sapiens (Human), UniProt Q9UNA0); details: read-out: hADAMTS-5 potency IC50
Procedure: Finally, the fluorescence is read on the Envision (Perkin Elmer) after an incubation of 90 min at 37° C.

human ADAMTS-5 [2] = target: T1, human ADAMTS-5; details: read-out: hADAMTS-5 potency IC50; remark: listed apart in the source
human TACE = human TACE (Homo sapiens (Human), UniProt P78536); details: read-out: TACE potency IC50
human MMP13 = human MMP13 (Homo sapiens (Human), UniProt P45452); details: read-out: hMMP-13 potency IC50
Procedure: Human MMP13 is preactivated by incubated the enzyme in the same buffer complemented with 1 mM freshly prepared p-Aminophenylmercuric acetate (AMPA) for 1 hour at 37° C.

T1 sequence (Q9UNA0 262-930): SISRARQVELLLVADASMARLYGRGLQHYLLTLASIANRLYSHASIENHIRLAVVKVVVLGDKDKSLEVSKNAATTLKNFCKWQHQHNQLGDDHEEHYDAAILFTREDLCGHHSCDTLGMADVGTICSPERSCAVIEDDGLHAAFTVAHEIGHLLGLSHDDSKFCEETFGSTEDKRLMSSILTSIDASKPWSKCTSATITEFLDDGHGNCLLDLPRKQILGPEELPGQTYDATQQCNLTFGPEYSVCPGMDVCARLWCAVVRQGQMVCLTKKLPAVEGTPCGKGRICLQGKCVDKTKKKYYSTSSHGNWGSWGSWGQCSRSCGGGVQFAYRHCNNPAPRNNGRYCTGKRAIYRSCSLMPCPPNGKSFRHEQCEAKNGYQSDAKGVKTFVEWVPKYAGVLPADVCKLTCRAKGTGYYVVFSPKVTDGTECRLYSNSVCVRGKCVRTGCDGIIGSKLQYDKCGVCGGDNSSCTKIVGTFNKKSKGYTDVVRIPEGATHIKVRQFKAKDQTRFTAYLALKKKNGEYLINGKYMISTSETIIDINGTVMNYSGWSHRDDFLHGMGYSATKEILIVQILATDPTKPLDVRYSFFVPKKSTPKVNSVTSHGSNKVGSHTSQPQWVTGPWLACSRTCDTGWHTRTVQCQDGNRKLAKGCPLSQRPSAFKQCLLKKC
Sequence of human TACE (P78536 whole entry, looked up, change not shown): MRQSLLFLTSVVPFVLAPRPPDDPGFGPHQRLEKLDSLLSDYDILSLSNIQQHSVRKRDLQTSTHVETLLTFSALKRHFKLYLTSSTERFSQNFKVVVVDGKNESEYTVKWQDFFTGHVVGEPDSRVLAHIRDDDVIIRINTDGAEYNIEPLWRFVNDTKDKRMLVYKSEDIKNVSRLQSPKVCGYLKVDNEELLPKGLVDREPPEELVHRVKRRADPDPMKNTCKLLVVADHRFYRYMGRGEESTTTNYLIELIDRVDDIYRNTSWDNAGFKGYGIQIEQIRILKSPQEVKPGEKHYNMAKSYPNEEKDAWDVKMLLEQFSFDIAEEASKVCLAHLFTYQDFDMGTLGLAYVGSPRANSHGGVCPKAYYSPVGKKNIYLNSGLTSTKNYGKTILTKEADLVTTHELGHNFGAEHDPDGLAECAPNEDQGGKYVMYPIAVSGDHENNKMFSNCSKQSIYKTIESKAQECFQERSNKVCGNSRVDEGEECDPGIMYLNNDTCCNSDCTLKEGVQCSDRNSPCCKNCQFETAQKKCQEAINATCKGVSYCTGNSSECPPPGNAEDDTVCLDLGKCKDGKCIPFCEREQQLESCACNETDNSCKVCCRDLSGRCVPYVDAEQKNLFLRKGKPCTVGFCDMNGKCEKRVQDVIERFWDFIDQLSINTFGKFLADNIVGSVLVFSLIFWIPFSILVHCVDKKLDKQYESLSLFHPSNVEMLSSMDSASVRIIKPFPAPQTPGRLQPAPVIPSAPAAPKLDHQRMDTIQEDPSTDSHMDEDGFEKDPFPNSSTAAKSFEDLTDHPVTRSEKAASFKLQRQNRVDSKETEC

Row | SMILES | IC50 (human ADAMTS-5 [1]) | IC50 (human ADAMTS-5 [2]) | IC50 (human TACE) | IC50 (human MMP13)
1 | CC1(CCC(=O)N2CCN(c3ccccc3F)CC2)NC(=O)NC1=O (stereo not drawn) [compound 30, 5-[3-[4-(2-fluorophenyl)piperazin-1-yl]-3-oxo-propyl]-5-methyl-imidazolidine-2,4-dione] | > 4000 nM | > 4000 nM | – | –
2 | CC1(CCC(=O)N2CCN(c3ccc(F)c(F)c3)CC2)NC(=O)NC1=O (stereo not drawn) [compound 37, 5-[3-[4-(3,4-difluorophenyl)piperazin-1-yl]-3-oxo-propyl]-5-methyl-imidazolidine-2,4-dione] | – | 229 nM | > 20000 nM | –
3 | C[C@@H]1CN(C(=O)CCC2(C3CC3)NC(=O)NC2=O)CCN1c1ccccc1 (stereo partly drawn) [compound 128, 5-cyclopropyl-5-[3-[(3R)-3-methyl-4-phenyl-piperazin-1-yl]-3-oxo-propyl]imidazolidine-2,4-dione] | – | 1170 nM | > 20000 nM | > 20000 nM
4 | CC1(CCC(=O)N2CCN(c3cccnc3)CC2)NC(=O)NC1=O (stereo not drawn) [compound 43, 5-methyl-5-[3-oxo-3-[4-(3-pyridyl)piperazin-1-yl]propyl]imidazolidine-2,4-dione] | – | 1530 nM | > 20000 nM | > 20000 nM
5 | C[C@@H]1CN(C(=O)CCC2(c3cccnc3)NC(=O)NC2=O)CCN1c1ccccc1 (stereo partly drawn) [compound 134, 5-[3-[(3R)-3-methyl-4-phenyl-piperazin-1-yl]-3-oxo-propyl]-5-(3-pyridyl)imidazolidine-2,4-dione] | – | 1870 nM | > 20000 nM | > 20000 nM
6 | CC1(CCC(=O)N2CCN(c3ccc(Cl)c(Cl)c3)CC2)NC(=O)NC1=O (stereo not drawn) [compound 67, 5-[3-[4-(3,4-dichlorophenyl)piperazin-1-yl]-3-oxo-propyl]-5-methyl-imidazolidine-2,4-dione] | – | 152 nM | > 4000 nM | > 3500 nM
7 | Cc1ccccc1N1CCN(C(=O)CCC2(C(C)C)NC(=O)NC2=O)CC1 (stereo not drawn) [compound 32, 5-isopropyl-5-[3-[4-(o-tolyl)piperazin-1-yl]-3-oxo-propyl]imidazolidine-2,4-dione] | – | 385 nM | > 4000 nM | –
8 | CC1(CCC(=O)N2CCN(c3cc(F)cc(Cl)c3)CC2)NC(=O)NC1=O (stereo not drawn) [compound 117, 5-[3-[4-(3-chloro-5-fluoro-phenyl)piperazin-1-yl]-3-oxo-propyl]-5-methyl-imidazolidine-2,4-dione] | – | 211 nM | > 4000 nM | > 4000 nM
9 | N#Cc1ccc(C2(CCC(=O)N3CCN(c4cccc(Cl)c4)CC3)NC(=O)NC2=O)cc1 (stereo not drawn) [compound 125, 4-[4-[3-[4-(3-chlorophenyl)piperazin-1-yl]-3-oxo-propyl]-2,5-dioxo-imidazolidin-4-yl]benzonitrile] | – | 53 nM | 1800 nM | 2120 nM
10 | Cc1cccc(C2(CCC(=O)N3CCN(c4cccc(Cl)c4)CC3)NC(=O)NC2=O)c1 (stereo not drawn) [compound 141, 5-[3-[4-(3-chlorophenyl)piperazin-1-yl]-3-oxo-propyl]-5-(m-tolyl)imidazolidine-2,4-dione] | – | 119 nM | – | –
11 | CC1(CCC(=O)N2CCN(c3ccccc3C#N)CC2)NC(=O)NC1=O (stereo not drawn) [compound 29] | > 4000 nM | > 12000 nM | – | –
12 | Cc1ccccc1N1CCN(C(=O)CCC2(CN(C)C)NC(=O)NC2=O)CC1 (stereo not drawn) [compound 119, 5-(dimethylaminomethyl)-5-[3-[4-(o-tolyl)piperazin-1-yl]-3-oxo-propyl]imidazolidine-2,4-dione] | – | 1740 nM | – | –
13 | Cc1c(F)cccc1N1CCN(C(=O)CCC2(C)NC(=O)NC2=O)CC1 (stereo not drawn) [compound 60, 5-[3-[4-(3-fluoro-2-methyl-phenyl)piperazin-1-yl]-3-oxo-propyl]-5-methyl-imidazolidine-2,4-dione] | – | 1160 nM | > 20000 nM | > 20000 nM
14 | COc1cccc(C2(CCC(=O)N3CCN(c4cccc(Cl)c4)CC3)NC(=O)NC2=O)c1 (stereo not drawn) [compound 123, 5-[3-[4-(3-chlorophenyl)piperazin-1-yl]-3-oxo-propyl]-5-(3-methoxyphenyl)imidazolidine-2,4-dione] | – | 95 nM | 1640 nM | 919 nM
15 | CC1(CCC(=O)N2CCN(c3ccc(F)c(Cl)c3)CC2)NC(=O)NC1=O (stereo not drawn) [compound 52, 5-[3-[4-(3-chloro-4-fluoro-phenyl)piperazin-1-yl]-3-oxo-propyl]-5-methyl-imidazolidine-2,4-dione] | – | 281 nM | > 20000 nM | –
16 | CC1CN(C(=O)CCC2(C3CC3)NC(=O)NC2=O)CCN1c1cc(Cl)cc(Cl)c1 (stereo not drawn) [compound 130, 5-cyclopropyl-5-[3-[4-(3,5-dichlorophenyl)-3-methyl-piperazin-1-yl]-3-oxo-propyl]imidazolidine-2,4-dione] | – | 126 nM | > 4000 nM | > 20000 nM
17 | O=C1NC(=O)C(CCC(=O)N2CCN(c3cccnc3)CC2)(c2ccccc2)N1 (stereo not drawn) [compound 45, 5-[3-oxo-3-[4-(3-pyridyl)piperazin-1-yl]propyl]-5-phenyl-imidazolidine-2,4-dione] | – | 204 nM | > 20000 nM | –
18 | CC1CN(C(=O)CCC2(c3cccnc3)NC(=O)NC2=O)CCN1c1ccc(Cl)cc1 (stereo not drawn) [compound 126, 5-[3-[4-(4-chlorophenyl)-3-methyl-piperazin-1-yl]-3-oxo-propyl]-5-(3-pyridyl)imidazolidine-2,4-dione] | – | 106 nM | > 4000 nM | > 4000 nM
19 | CC1CN(C(=O)CCC2(C)NC(=O)NC2=O)CCN1c1ccccc1 (stereo not drawn) [compound 63, 5-methyl-5-[3-(3-methyl-4-phenyl-piperazin-1-yl)-3-oxo-propyl]imidazolidine-2,4-dione] | – | 1240 nM | > 20000 nM | –
20 | CN(C)CCC1(CCC(=O)N2CCN(c3cc(Cl)cc(Cl)c3)CC2)NC(=O)NC1=O (stereo not drawn) [compound 58, 5-[3-[4-(3,5-dichlorophenyl)piperazin-1-yl]-3-oxo-propyl]-5-(2-dimethylaminoethyl)imidazolidine-2,4-dione] | – | > 20000 nM | – | –
21 | O=C1NC(=O)C(CCC(=O)N2CCN(c3ccc4occc4c3)CC2)(c2ccccc2)N1 (stereo not drawn) [compound 25, 5-[3-[4-(benzofuran-5-yl)piperazin-1-yl]-3-oxo-propyl]-5-phenyl-imidazolidine-2,4-dione] | – | 138 nM | > 2000 nM | –
22 | CC1CN(C(=O)CCC2(c3ccccc3)NC(=O)NC2=O)CCN1c1ccccc1 (stereo not drawn) [compound 62, 5-[3-(3-methyl-4-phenyl-piperazin-1-yl)-3-oxo-propyl]-5-phenyl-imidazolidine-2,4-dione] | – | 293 nM | > 20000 nM | –
23 | O=C1NC(=O)C(CCC(=O)N2CCN(c3ccc4scnc4c3)CC2)(c2ccccc2)N1 (stereo not drawn) [compound 26, 5-[3-[4-(1,3-benzothiazol-5-yl)piperazin-1-yl]-3-oxo-propyl]-5-phenyl-imidazolidine-2,4-dione] | – | 706 nM | > 10000 nM | –
24 | CC1(CCC(=O)N2CCN(c3cccc(Br)c3)CC2)NC(=O)NC1=O (stereo not drawn) [compound 48, 5-[3-[4-(3-bromophenyl)piperazin-1-yl]-3-oxo-propyl]-5-methyl-imidazolidine-2,4-dione] | – | 391 nM | – | –
25 | Cc1ccc(C)c(N2CCN(C(=O)CCC3(C)NC(=O)NC3=O)CC2)c1 (stereo not drawn) [compound 39, 5-[3-[4-(2,5-dimethylphenyl)piperazin-1-yl]-3-oxo-propyl]-5-methyl-imidazolidine-2,4-dione] | – | 570 nM | 588 nM | –
26 | C[C@@H]1CN(C(=O)CCC2(c3ccccc3)NC(=O)NC2=O)CCN1c1ccccc1 (stereo partly drawn) [compound 131, 5-[3-[(3R)-3-methyl-4-phenyl-piperazin-1-yl]-3-oxo-propyl]-5-phenyl-imidazolidine-2,4-dione] | – | 1260 nM | – | –
